The source of these data is patent US20030125311A1, “Compounds capable of binding with the cytoskeleton” (priority 2002, published 2003).

One test deals with MAP2-tubulin copolymers (Bos taurus, UniProt A0A3Q1NAK9). Nature of the test: Competition for PREG [3H] binding to MAP2-tubulin copolymers (RCR). Also noted: species or system calf. The conditions noted are these: MAP2-tubulin copolymers; PREG = 100. The protocol:
(§1) In trials of competition between pregnenolone and different steroids for the binding studied, 0.2 ml of cytosol is incubated with 100 nM of PREG [^3H] and a 1-, 10-, 100-, and 1,000-fold excess of non-radioactive steroid.
(§2) The relative competition index was determined as ratios of the concentrations of the competitor (in the […]) versus PREG causing a reduction of 50% of the specific binding of PREG [^3H]×100 (mean±standard error, n=3).
(§3) Purified calf brain tubulin (90 μg/ml), MAP2 (45 μg/ml) or tau protein (25 μg/ml) is incubated with 100 nM of PREG [^3H], with or without a 1,000-fold excess of non-radioactive PREG.

Test [1] addresses adult rat brain cytosol compound which binds PREG (Rattus norvegicus, UniProt P15146). Nature of the test: Equilibrium binding of PREG to adult rat brain cytosol. As for the experimental part: Adult male rat brains are collected after perfusion with PBS containing 2 IU/ml of heparin. The brains are weighed and homogenized with 4 vol. of homogenization buffer in Potter glass/Teflon® homogenizers, and centrifuged at 800 g for 10 min.
The supernatant is then centrifuged at 100,000 g for 1 h at 4° C. The samples are used immediately for the trials, or are stored in liquid nitrogen until the moment of their use.
Just before the binding trial, each sample is purified with a dextran-carbon suspension, and 2 ml samples of supernatant (purified cytosol) are added to a series of tubes containing 1 to 500 nM PREG [^3H], with or without unlabeled steroid in 1,000-fold excess.
The tubes are incubated at 45° C. for 30 min. The separation of bound and free steroid was carried out on a Sephadex LH-20® (Amersham Pharmacia Biotech) mini-column.
The counting of the radioactivity in the flasks was performed in a liquid scintillation spectrometer with attenuation correction (Tri-Carb 2100 TR®, Packard).

In test [2] the target is T1, fetal microtubules (Rattus norvegicus, UniProt P15146). The experiment in a line: Competition for PREG [3H] binding to fetal microtubules (RCR). As to conditions: PREG = 100. As for the experimental part:
as §1
(§4) The microtubules are prepared starting from calf brain or adult or fetal rat brain according to an assembly/disassembly method, as a function of the temperature, in vitro (12).
as §2
(§5) The binding of PREG [^3H] to microtubules prepared by polymerization/depolymerization cycles was determined.

The next test deals with tau protein. Nature of the test: Saturable binding of PREG [3H] to purified tau protein. Also noted: species or system calf. The conditions noted are these: tau protein 25 μg/ml, 100 nM PREG [3H] ± 1,000-fold excess PREG. The protocol:
The tau and MAP2 proteins are purified according to the protocol of Fellous et al. (12) by heat denaturation of the microtubules and gel filtration on a column, Sephacryl 300® being used instead of the Ultrogel ACA 34. The tau proteins are then Further purified according to the method of Lindwall and Cole (15).
as §3

Test [3] deals with purified calf brain tubulin. Nature of the test: Saturable binding of PREG [3H] to purified tubulin. As to conditions: tubulin 90 μg/ml, 100 nM PREG [3H] ± 1,000-fold excess PREG. As for the experimental part: The calf tubulin is purified according to the protocol of Weingarten et al. (13), but the step using phosphocellulose is replaced by a cation exchange column chromatography (Fractogel, Merck) (14). The microtubules and the tubulin are prepared in L buffer, supplemented with 1 mM of GTP (buffer A).
as §3

For test [4], the target named is T1, fetal microtubules. Nature of the test: Binding of PREG [3H] to purified fetal rat brain microtubules. The protocol: as §4, §5
Test [5] addresses T2, microtubules reconstituted with purified tubulin and MAP2 (Bos taurus, UniProt A0A3Q1NAK9).
T2 construct: from tissue; host or cells: calf brain
Nature of the test: Kinetics of assembling of microtubules (turbidity at 345 nm). Format: biochemical, calf. The conditions noted are these: 500 nM steroid, 37° C., 15 min. The protocol: This assembling is measured by monitoring the increases of turbidity with a UVICON® spectrophotometer (Kontron Instruments, Montigny-le-Bretonneux, France)
The microtubules are reconstituted in vitro with purified tubulin (1 mg/ml) and MAP2 (0.05 mg/ml) in buffer A.
The increase of absorbance is measured at 345 nm, at 37° C. and recorded every 30 sec. for 15 min.
The assembling of microtubules is measured either in the absence of steroids (-⋄-); or in the presence of 500 nM of steroid: PREG (- -), progesterone (-X-), estradiol (-V-); or in the presence, at the same time, of PREG and progesterone (-∘-) or of PREG and estradiol (-Δ-) each at a concentration of 500 nM.

Test [6] deals with rat brain cytosol binding sites of pregnenolone. Nature of the test: Competition trials for PREG [3H] binding in brain cytosol. Also noted: key to R.C.R. 50 (relative competition index): IC50(PREG)/IC50(competitor) ×100; PREG = 100. As to conditions: PREG = 100, 50% reduction of specific binding of 100 nM PREG [3H], mean±standard error, n=3. As for the experimental part: as §1
To study the specificity of the binding of PREG [^3H], different steroids were used.
as §2

T1 sequence (P15146 whole entry): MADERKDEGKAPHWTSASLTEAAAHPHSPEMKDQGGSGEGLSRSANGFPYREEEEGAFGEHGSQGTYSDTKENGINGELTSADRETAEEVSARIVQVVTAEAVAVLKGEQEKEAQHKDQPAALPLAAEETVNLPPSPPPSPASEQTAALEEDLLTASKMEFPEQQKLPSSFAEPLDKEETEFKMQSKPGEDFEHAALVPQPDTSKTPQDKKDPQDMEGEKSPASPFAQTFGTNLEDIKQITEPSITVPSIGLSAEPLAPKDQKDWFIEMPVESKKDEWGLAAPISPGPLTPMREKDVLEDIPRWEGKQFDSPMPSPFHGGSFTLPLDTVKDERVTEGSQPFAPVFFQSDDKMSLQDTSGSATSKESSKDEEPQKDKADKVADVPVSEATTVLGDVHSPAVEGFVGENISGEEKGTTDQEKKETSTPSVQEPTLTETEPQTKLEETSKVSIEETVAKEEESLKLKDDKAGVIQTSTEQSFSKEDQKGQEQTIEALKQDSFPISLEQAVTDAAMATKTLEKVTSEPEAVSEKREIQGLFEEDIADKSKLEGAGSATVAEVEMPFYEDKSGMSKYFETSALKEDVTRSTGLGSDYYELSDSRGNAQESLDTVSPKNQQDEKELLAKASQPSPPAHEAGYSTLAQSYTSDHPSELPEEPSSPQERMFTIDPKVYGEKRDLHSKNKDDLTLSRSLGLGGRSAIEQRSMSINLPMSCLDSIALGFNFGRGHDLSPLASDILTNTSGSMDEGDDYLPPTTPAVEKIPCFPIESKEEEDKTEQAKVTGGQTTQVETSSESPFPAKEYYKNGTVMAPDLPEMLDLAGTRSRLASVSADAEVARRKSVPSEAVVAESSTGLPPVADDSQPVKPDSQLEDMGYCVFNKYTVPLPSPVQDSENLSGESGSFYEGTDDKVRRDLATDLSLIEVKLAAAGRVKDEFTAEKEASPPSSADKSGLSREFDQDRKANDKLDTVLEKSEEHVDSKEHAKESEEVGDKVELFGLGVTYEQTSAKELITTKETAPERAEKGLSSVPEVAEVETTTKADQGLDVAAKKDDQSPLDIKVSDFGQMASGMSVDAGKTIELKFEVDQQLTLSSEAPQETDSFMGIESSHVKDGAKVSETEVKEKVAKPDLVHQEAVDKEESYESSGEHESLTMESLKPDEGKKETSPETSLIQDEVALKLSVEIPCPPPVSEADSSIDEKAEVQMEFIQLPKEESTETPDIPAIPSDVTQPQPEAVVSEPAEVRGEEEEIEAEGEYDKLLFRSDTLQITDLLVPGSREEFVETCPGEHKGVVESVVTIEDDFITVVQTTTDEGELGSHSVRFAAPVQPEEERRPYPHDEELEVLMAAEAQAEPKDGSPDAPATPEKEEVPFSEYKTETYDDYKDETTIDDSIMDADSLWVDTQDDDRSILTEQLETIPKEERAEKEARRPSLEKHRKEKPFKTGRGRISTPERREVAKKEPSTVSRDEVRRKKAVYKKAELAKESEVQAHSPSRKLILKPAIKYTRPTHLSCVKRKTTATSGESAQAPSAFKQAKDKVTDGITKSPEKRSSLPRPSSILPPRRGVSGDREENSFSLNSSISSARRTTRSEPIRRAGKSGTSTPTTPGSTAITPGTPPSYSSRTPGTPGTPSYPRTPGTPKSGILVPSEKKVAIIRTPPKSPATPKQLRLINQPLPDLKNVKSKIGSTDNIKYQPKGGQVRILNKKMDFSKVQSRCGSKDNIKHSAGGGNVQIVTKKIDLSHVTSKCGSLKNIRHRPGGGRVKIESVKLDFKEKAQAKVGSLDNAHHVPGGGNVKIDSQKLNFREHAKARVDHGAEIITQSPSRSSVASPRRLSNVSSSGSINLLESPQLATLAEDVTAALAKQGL
MAP2-tubulin copolymers, sequence (A0A3Q1NAK9 1-1867): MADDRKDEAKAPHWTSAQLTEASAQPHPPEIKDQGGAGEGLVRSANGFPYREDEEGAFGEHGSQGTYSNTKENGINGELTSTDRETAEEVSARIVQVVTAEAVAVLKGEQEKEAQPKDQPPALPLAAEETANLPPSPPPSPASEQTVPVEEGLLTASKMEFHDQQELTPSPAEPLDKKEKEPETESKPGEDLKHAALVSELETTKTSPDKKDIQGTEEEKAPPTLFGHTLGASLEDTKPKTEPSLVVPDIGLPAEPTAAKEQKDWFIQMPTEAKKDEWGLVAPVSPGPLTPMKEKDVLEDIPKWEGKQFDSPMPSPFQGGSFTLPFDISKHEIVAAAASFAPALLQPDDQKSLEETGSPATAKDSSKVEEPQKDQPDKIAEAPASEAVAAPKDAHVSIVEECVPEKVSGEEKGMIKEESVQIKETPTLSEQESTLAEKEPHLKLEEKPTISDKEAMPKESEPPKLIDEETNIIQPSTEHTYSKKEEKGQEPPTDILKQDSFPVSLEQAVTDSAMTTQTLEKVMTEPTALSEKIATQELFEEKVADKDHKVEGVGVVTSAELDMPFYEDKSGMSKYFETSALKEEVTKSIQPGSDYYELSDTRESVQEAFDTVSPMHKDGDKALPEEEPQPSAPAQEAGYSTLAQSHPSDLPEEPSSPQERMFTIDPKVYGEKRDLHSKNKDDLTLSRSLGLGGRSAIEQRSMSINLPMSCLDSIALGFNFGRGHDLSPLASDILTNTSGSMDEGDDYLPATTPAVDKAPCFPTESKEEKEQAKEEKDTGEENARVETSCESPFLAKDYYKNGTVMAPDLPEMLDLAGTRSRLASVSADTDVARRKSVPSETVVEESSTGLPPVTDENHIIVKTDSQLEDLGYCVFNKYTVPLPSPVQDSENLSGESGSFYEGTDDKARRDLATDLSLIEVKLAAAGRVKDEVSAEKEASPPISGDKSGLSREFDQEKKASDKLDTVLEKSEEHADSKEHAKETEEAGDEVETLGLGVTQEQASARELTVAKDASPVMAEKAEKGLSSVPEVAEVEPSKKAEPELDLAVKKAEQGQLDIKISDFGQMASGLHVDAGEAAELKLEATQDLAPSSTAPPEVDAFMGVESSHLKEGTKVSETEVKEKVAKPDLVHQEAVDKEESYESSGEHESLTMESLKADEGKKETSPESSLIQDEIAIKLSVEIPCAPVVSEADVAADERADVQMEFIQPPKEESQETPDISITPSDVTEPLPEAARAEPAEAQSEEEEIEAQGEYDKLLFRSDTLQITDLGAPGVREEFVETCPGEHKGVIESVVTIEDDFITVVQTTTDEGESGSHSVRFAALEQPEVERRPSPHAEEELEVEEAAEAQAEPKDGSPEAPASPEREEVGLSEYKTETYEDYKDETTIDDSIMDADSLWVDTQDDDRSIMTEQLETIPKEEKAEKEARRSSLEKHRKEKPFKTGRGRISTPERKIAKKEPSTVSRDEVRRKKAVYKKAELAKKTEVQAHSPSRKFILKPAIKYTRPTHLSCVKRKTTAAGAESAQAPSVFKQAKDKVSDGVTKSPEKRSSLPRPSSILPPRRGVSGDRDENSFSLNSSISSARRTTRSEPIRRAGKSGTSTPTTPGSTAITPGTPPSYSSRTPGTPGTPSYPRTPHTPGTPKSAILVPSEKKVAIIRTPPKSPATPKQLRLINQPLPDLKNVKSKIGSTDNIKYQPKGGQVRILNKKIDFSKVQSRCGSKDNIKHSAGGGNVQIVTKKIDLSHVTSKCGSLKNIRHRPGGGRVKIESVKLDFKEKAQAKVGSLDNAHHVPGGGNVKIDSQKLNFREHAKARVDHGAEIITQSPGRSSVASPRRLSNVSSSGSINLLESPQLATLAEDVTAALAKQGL
T2 sequence (A0A3Q1NAK9 1-1867): as above
adult rat brain cytosol compound which binds PREG, sequence (P15146 whole entry, the tested form may be a part): as the sequence (P15146 whole entry) above

As for `CC(=O)C1CCC2C3CC=C4CC(O)CCC4(C)C3CCC12C` (stereo not drawn) [Pregnenolone], the RCR on MAP2-tubulin copolymers and on fetal microtubules [2] was 100 each time. The Bmax is 0.75 pmol/mg of protein in test [1] and 3.7 pmol/mg of protein on fetal microtubules [4]. For the same compound, the “saturable binding to tau protein” value in the test on tau protein was “neither tubulin, nor tau protein, nor rabbit IgG binds PREG [^3H] in a saturable manner”. The “saturable binding to tubulin” value in test [3] is “neither tubulin, nor tau protein, nor rabbit IgG binds PREG [^3H] in a saturable manner”. Besides, binding at fetal microtubules [4] was characterised by a dissociation constant (Kd) of 42.9 nM. In addition, in test [5], the “effect on assembling of microtubules (absorbance at 345 nm)” value is “induces a strong increase of both the speed and the extent of the assembling of the tubulin”. The “R.C.R. 50 (relative competition index)” value in test [6] was determined as 100.
